Values of other authors in patent EP3473244A1, “CONTROLLED RELEASE ORAL TAMSULOSIN HYDROCHLORIDE” (Veru Inc., priority 2017, dated 2019).

Conditions: reported value used to set PK sampling times

Question: With CCOc1ccccc1OCCN[C@H](C)Cc1ccc(OC)c(S(N)(=O)=O)c1 [Tamsulosin] as the compound, how does the “T ½” value read?
Answer: 5 h
